Assay type in all cases: functional
Experiment [1] concerns Ipomoea nil. Description: Post-emergence herbicidal activity against Ipomoea nil (Japanese morning glory) assessed as inhibition at 75 g/hectare by green house assay.
For experiment [2], the system named is Amaranthus retroflexus. Description: Post-emergence herbicidal activity against Amaranthus retroflexus assessed as inhibition at 150 g/hectare by green house assay.
Experiment [3] relates to Brassica rapa subsp. chinensis. Briefly: Post-emergence herbicidal activity against Brassica rapa subsp. chinensis assessed as inhibition at 150 g/hectare by green house assay.
The subject of experiment [4] is Pontederia vaginalis. Description: Post-emergence herbicidal activity against Monochoria vaginalis assessed as inhibition at 75 g/hectare by green house assay.
Experiment [5] has as its system Brassica juncea. Description: Post-emergence herbicidal activity against Brassica juncea assessed as inhibition at 75 g/hectare by green house assay.
Experiment [6] has as its system Brassica rapa subsp. oleifera. Description: Post-emergence herbicidal activity against Brassica rapa subsp. oleifera assessed as inhibition at 150 g/hectare by green house assay.
In experiment [7] the test system is Chenopodium album. Briefly: Post-emergence herbicidal activity against Chenopodium album assessed as inhibition at 150 g/hectare by green house assay.
The subject of experiment [8] is Radish. Briefly: Post-emergence herbicidal activity against Raphanus sativus (radish) assessed as inhibition at 75 g/hectare by green house assay.
The test system of experiment [9] is Brassica oleracea. Briefly: Post-emergence herbicidal activity against Brassica oleracea assessed as inhibition at 75 g/hectare by green house assay.
For experiment [10], the system named is Ipomoea nil. Briefly: Post-emergence herbicidal activity against Ipomoea nil (Japanese morning glory) assessed as inhibition at 150 g/hectare by green house assay.
Experiment [11] relates to Radish. Description: Post-emergence herbicidal activity against Raphanus sativus (radish) assessed as inhibition at 150 g/hectare by green house assay.
Experiment [12] has as its system Brassica rapa subsp. chinensis. Description: Post-emergence herbicidal activity against Brassica rapa subsp. chinensis assessed as inhibition at 75 g/hectare by green house assay.
Experiment [13] has as its system Ammannia baccifera. Briefly: Post-emergence herbicidal activity against Ammannia baccifera assessed as inhibition at 75 g/hectare by green house assay.
The subject of experiment [14] is Chenopodium album. Description: Post-emergence herbicidal activity against Chenopodium album assessed as inhibition at 75 g/hectare by green house assay.
In experiment [15] the test system is Amaranthus retroflexus. Briefly: Post-emergence herbicidal activity against Amaranthus retroflexus assessed as inhibition at 75 g/hectare by green house assay.
Experiment [16] deals with Brassica rapa subsp. oleifera. Description: Post-emergence herbicidal activity against Brassica rapa subsp. oleifera assessed as inhibition at 75 g/hectare by green house assay.
The subject of experiment [17] is Brassica juncea. Description: Post-emergence herbicidal activity against Brassica juncea assessed as inhibition at 150 g/hectare by green house assay.
Experiment [18] relates to Brassica oleracea. Description: Post-emergence herbicidal activity against Brassica oleracea assessed as inhibition at 150 g/hectare by green house assay.
The subject of experiment [19] is Pontederia vaginalis. Briefly: Post-emergence herbicidal activity against Monochoria vaginalis assessed as inhibition at 150 g/hectare by green house assay.
In experiment [20] the test system is Ammannia baccifera. Briefly: Post-emergence herbicidal activity against Ammannia baccifera assessed as inhibition at 150 g/hectare by green house assay.

Usually inhibition stands for the share of the control response that was lost under treatment.

As to `O=C(O)CNCP(=O)(O)O` [GLYPHOSATE], the inhibition at 75 g/ha with Ipomoea nil [1] was 60%; in the experiment on Pontederia vaginalis [4] it was 100%; in the experiment on Brassica juncea [5] it was 30%; in the experiment on Radish [8], 60%; in the experiment on Brassica oleracea [9], 70%; in experiment [12], 70%. Also, the inhibition at 75 g/ha in the experiment with Ammannia baccifera [13] came out at 100%; in the experiment on Chenopodium album [14], 70%; in the experiment on Amaranthus retroflexus [15], 90%; in experiment [16], 100%. The inhibition at 150 g/ha with Amaranthus retroflexus [2] amounted to 90%; in [3], 80%; in experiment [6], 100%; in the experiment on Chenopodium album [7], 90%; with Ipomoea nil [10] it was 60%; in the experiment with Radish [11], 65%. The inhibition at 150 g/ha in the experiment with Brassica juncea [17] was 80%; in the experiment with Brassica oleracea [18] it was 80%; in the experiment with Pontederia vaginalis [19], 100%; with Ammannia baccifera [20], 100%.
